The values below are quoted from earlier work in patent US20040170683A1, “Tablets comprising modafinil” (priority 2003, published 2004).

The conditions of series [1]: capsules containing the finer particles versus capsules containing the coarser particles.
For series [2] the following is noted: oral, human trials; median particle size between 30 and 50 microns versus between 80 and 150 microns.

On to `NC(=O)C[S+]([O-])C(c1ccccc1)c1ccccc1` (centres unmarked) [modafinil, Modafinil], for which, in series [1], the dissolution of capsules entry is “substantially faster”. Besides, in series [2], the extent of absorption result was “greater extent of absorption”.
